Assay results reported in patent publication US20200361871A1 (Enterprise Therapeutics Ltd., priority 2018, published 2020).
“Also recorded” adds a separate entry of the source.

Key:
[1] = Storage of forms of Compound 36 at 40° C./75% RH in open vials, XRPD; type: physicochemical; conditions: open vial, 7 days
Protocol: Form A was stored at 40° C./75% RH, in an open vial. […] Therefore, Form A is stable to exposure to elevated temperature and humidity for up to 2 weeks and no evidence of a hydrated form was observed.
One sample of each of the new forms (Forms B, C, D, E, E+extra peaks, F, G and H) was analysed by ^1H NMR, TGA, DSC and stored at 40° C./75% RH. Results are summarised in Table E with Form A for comparison.

[2] = target: human TMEM16A (TMEM16Aabc variant) (Homo sapiens, UniProt Q5XXA6, DEL476-501, form not given); assay: Automated whole-cell patch clamp (Qpatch) TMEM16A potentiator assay in FRT cells stably expressing human TMEM16A; type: cell-based; conditions: for % Potentiation @ 3.33 μM Avg: 3.33 μM solution of test compound, percentage increase of baseline TMEM16A current; for EC50: calculated EC50, Qpatch TMEM16A current at +70 mV
Method in brief: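 Potentiation was read as the rise in peak +70 mV current over baseline (%), from cumulative 5-min additions of compound. Recordings used whole-cell automated patch of FRT cells stably carrying human TMEM16Aabc, with pipette Ca2+ buffered to give ~20% maximal current. EC50 and efficacy came from concentration-response fits.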

Chain of human TMEM16A (TMEM16Aabc variant) (Q5XXA6 with tags, fused parts or gaps DEL476-501): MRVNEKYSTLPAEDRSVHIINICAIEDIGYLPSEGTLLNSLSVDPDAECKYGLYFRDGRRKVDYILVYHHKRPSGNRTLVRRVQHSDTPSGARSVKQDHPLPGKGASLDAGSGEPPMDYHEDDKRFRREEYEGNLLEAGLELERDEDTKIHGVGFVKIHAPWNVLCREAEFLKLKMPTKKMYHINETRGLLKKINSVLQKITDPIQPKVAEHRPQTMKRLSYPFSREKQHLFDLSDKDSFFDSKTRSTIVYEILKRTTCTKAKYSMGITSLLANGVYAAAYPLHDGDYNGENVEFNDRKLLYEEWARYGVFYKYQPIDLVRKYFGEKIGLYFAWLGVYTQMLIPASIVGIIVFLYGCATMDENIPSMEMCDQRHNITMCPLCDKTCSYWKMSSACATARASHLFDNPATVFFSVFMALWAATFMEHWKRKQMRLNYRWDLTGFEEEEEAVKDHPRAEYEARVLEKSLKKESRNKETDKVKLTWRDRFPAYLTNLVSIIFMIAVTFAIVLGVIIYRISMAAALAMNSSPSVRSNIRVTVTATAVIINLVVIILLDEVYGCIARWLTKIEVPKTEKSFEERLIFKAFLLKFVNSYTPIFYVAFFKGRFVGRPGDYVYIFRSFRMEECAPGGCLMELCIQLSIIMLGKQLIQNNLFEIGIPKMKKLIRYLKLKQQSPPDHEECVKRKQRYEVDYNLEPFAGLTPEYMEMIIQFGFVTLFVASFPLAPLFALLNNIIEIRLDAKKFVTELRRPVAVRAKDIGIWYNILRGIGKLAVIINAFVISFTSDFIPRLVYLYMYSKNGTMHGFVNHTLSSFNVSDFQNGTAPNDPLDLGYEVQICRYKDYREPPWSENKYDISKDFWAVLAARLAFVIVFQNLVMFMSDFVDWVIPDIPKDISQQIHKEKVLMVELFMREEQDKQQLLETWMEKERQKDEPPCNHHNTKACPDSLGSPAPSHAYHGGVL

SMILES	Storage at 40° C./75% RH (change of form by XRPD) [1]	% Potentiation @ 3.33 μM Avg [2]	EC50 [2]
C#CC(C)(C)NC(=O)c1cc(NC(=O)Cc2cc(Cl)ccc2O)ccn1 [Compound 36 Form C, 4-[[2-(5-Chloro-2-hydroxy-phenyl)acetyl]amino]-N-(1,1-dimethylprop-2-ynyl)pyridine-2-carboxamide]	Changed to mainly		
C#CC(C)(C)NC(=O)c1cc(NC(=O)Cc2cc(Cl)ccc2O)ccn1 [Compound 36 Form G, 4-[[2-(5-Chloro-2-hydroxy-phenyl)acetyl]amino]-N-(1,1-dimethylprop-2-ynyl)pyridine-2-carboxamide]	Changed to Form A		
C#CC(C)(C)NC(=O)c1cc(NC(=O)Cc2cc(Cl)ccc2O)ccn1 [Compound 36 Form F, 4-[[2-(5-Chloro-2-hydroxy-phenyl)acetyl]amino]-N-(1,1-dimethylprop-2-ynyl)pyridine-2-carboxamide]	stable; also recorded: No change (7		
C#CC(C)(C)NC(=O)c1cc(NC(=O)Cc2cc(Cl)ccc2O)ccn1 [Compound 36 Form D, 4-[[2-(5-Chloro-2-hydroxy-phenyl)acetyl]amino]-N-(1,1-dimethylprop-2-ynyl)pyridine-2-carboxamide]	converted to a mixture of Form A and Form B; also recorded: Changed to mainly		
C#CC(C)(C)NC(=O)c1cc(NC(=O)Cc2cc(Cl)ccc2O)ccn1 [Compound 36 Form E, 4-[[2-(5-Chloro-2-hydroxy-phenyl)acetyl]amino]-N-(1,1-dimethylprop-2-ynyl)pyridine-2-carboxamide]	Changed to mainly		
C#CC(C)(C)NC(=O)c1cc(NC(=O)Cc2cc(Cl)ccc2O)ccn1 [Compound 36 Form B, 4-[[2-(5-Chloro-2-hydroxy-phenyl)acetyl]amino]-N-(1,1-dimethylprop-2-ynyl)pyridine-2-carboxamide]	stable; also recorded: No change (7 days)		
CC(C)(CCNCC(F)(F)F)NC(=O)c1cc(NC(=O)Cc2cc(Cl)ccc2O)ccn1 [Example 43, 4-[[2-(5-Chloro-2-hydroxy-phenyl)acetyl]amino]-N-[1,1-dimethyl-3-(2,2,2-trifluoroethylamino)propyl]pyridine-2-carboxamide]		174%	700 nM
CC(C)(C)NC(=O)c1cc(NC(=O)Cc2ccc(Cl)cc2O)ccn1 [Example 3.6b, N-tert-Butyl-4-[[2-(4-chloro-2-hydroxy-phenyl)acetyl]amino]pyridine-2-carboxamide]		205%	120 nM
O=C(Cc1cc(Cl)ccc1O)Nc1ccnc(C(=O)NC2(CO)CCOCC2)c1 [Example 53, 4-[[2-(5-Chloro-2-hydroxy-phenyl)acetyl]amino]-N-[4-(hydroxymethyl)tetrahydropyran-4-yl]pyridine-2-carboxamide]		184%	390 nM
COc1ccccc1-c1cc(C(=O)Nc2ccnc(C(=O)NC(C)(C)C#N)c2)no1 [Example 83.27, N-[2-[(1-Cyano-1-methyl-ethyl)carbamoyl]-4-pyridyl]-5-(2-methoxyphenyl)isoxazole-3-carboxamide]		-11%	
O=C(Cc1cc(Cl)ccc1O)Nc1ccnc(C(=O)NCc2ccncc2)c1 [Example 32.4, 4-[[2-(5-Chloro-2-hydroxy-phenyl)acetyl]amino]-N-(4-pyridylmethyl)pyridine-2-carboxamide]		187%	710 nM
CC(C)(C)NC(=O)c1cc(NC(=O)Cc2ccc3ccccc3c2)ccn1 [Example 5.24, N-tert-Butyl-4-[[2-(2-naphthyl)acetyl]amino]pyridine-2-carboxamide]		189%	140 nM
CC(C)(C)NC(=O)c1cc(NC(=O)Cc2ccc3c(c2)OCCO3)ccn1 [Example 5.31]		145%	
CC(C)(C)NC(=O)c1cc(NC(=O)Cc2ccccc2Br)ccn1 [Example 23.13, 4-[[2-(2-bromophenyl)acetyl]amino]-N-tert-butyl-pyridine-2-carboxamide]		169%	570 nM
CC(C)(C)NC(=O)c1cccc(NC(=O)Cc2cc(F)c(F)cc2O)c1 [Example 2.12, N-tert-Butyl-3-[[2-(4,5-difluoro-2-hydroxy-phenyl)acetyl]amino] benzamide]		111%	310 nM
CC(C)C(C)(C)NC(=O)c1cccc(NC(=O)Cc2cc(Cl)ccc2O)c1 [Example 7.5, 3-[[2-(5-Chloro-2-hydroxy-phenyl)acetyl]amino]-N-(1,1,2-trimethylpropyl)benzamide]		239%	280 nM
CC(O)c1cccc(CC(=O)Nc2ccnc(C(=O)NC(C)(C)C)c2)c1 (stereo not shown) [Example 54, N-tert-Butyl-4-[[2-[3-(1-hydroxyethyl)phenyl]acetyl]amino]pyridine-2-carboxamide]		62%	
O=C(Cc1cc(Cl)ccc1O)Nc1ccnc(C(=O)NC2CCOCC2)c1 [Example 7.11, 4-[[2-(5-Chloro-2-hydroxy-phenyl)acetyl]amino]-N-tetrahydropyran-4-yl-pyridine-2-carboxamide]		167%	320 nM
COCC(C)(C)NC(=O)c1cccc(NC(=O)Cc2ccccc2O)c1 [Example 1.9, 3-[[2-(2-Hydroxyphenyl)acetyl]amino]-N-(2-methoxy-1,1-dimethyl-ethyl)benzamide]		79%	4200 nM
CC(C)(C#N)NC(=O)c1cc(NC(=O)c2cccnc2Oc2ccccc2)ccn1 [Example 83.25, N-[2-[(1-Cyano-1-methyl-ethyl)carbamoyl]-4-pyridyl]-2-phenoxy-pyridine-3-carboxamide]		-8%	
CC(C)(C)NC(=O)c1cc(NC(=O)Cc2ccccc2C(F)(F)F)ccn1 [Example 23.12, N-tert-Butyl-4-[[2-[2-(trifluoromethyl)phenyl]acetyl]amino]pyridine-2-carboxamide]		197%	330 nM
Cc1cc(NC(=O)Cc2cc(Cl)ccc2O)cc(C(=O)NC(C)(C)C)c1 [Example 9.1, N-tert-Butyl-3-[[2-(5-chloro-2-hydroxy-phenyl)acetyl]amino]-5-methyl-benzamide]		77%	4620 nM
